Reference: the NIST ThermoML archive (doi:10.1016/j.jct.2013.02.022)

Columns and labels:
[1] = xn = mol fraction of the nth substance listed; conditions: 101 kPa, Liquid, Vibrating tube method
[2] = refractive index (Na D-line) (dimensionless); xn = mol fraction of the nth substance listed; conditions: 288.15 K, 101 kPa, Liquid, Standard Abbe refractometry

CCCC(=O)[O-].C[NH2+]CCO [N-methyl-2-hydroxyethylammonium butanoate] + COC(C)=O
[1]
Conditions	mass density [kg/m3]
288.14 K, x2 = 0.7912	977.2
288.15 K, x2 = 0	1046
288.15 K, x2 = 0.0646	1040
288.15 K, x2 = 0.1097	1036.1
288.15 K, x2 = 0.2074	1027.3
288.15 K, x2 = 0.3079	1021.07
288.15 K, x2 = 0.3983	1015.6
288.15 K, x2 = 0.4973	1011.5
288.15 K, x2 = 0.5928	1003
288.15 K, x2 = 0.6898	991.4
288.15 K, x2 = 0.898	959.7
288.16 K, x2 = 0.9483	950.1
293.14 K, x2 = 0.0646	1036.4
293.14 K, x2 = 0.1097	1032.5
293.14 K, x2 = 0.9483	943.8
293.15 K, x2 = 0	1042.6
293.15 K, x2 = 0.2074	1024
293.15 K, x2 = 0.3079	1017.3
293.15 K, x2 = 0.3983	1011.4
293.15 K, x2 = 0.4973	1007.2
293.15 K, x2 = 0.5928	998.4
293.15 K, x2 = 0.6898	986.5
293.15 K, x2 = 0.7912	971.7
293.15 K, x2 = 0.898	953.8
298.14 K, x2 = 0.0646	1032.8
298.14 K, x2 = 0.3983	1007.1
298.14 K, x2 = 0.6898	981.5
298.14 K, x2 = 0.7912	966.2
298.14 K, x2 = 0.898	947.7
298.14 K, x2 = 0.9483	937.5
298.15 K, x2 = 0	1039.2
298.15 K, x2 = 0.1097	1028.9
298.15 K, x2 = 0.2074	1019.6
298.15 K, x2 = 0.3079	1013.2
298.15 K, x2 = 0.4973	1002.9
298.15 K, x2 = 0.5928	993.7
303.14 K, x2 = 0.0646	1029.1
303.14 K, x2 = 0.2074	1015.8
303.14 K, x2 = 0.3983	1002.8
303.14 K, x2 = 0.4973	998.4
303.14 K, x2 = 0.5928	989.1
303.14 K, x2 = 0.6898	976.4
303.14 K, x2 = 0.7912	960.7
303.14 K, x2 = 0.898	941.6
303.14 K, x2 = 0.9483	931.1
303.15 K, x2 = 0	1035.9
303.15 K, x2 = 0.1097	1025.2
303.15 K, x2 = 0.3079	1009
308.14 K, x2 = 0.0646	1025.6
308.14 K, x2 = 0.2074	1013.3
308.14 K, x2 = 0.3079	1004.8
308.14 K, x2 = 0.3983	998.5
308.14 K, x2 = 0.4973	992.6
308.14 K, x2 = 0.6898	971.3
308.14 K, x2 = 0.7912	955.1
308.14 K, x2 = 0.898	935.5
308.14 K, x2 = 0.9483	924.6
308.15 K, x2 = 0	1032.5
308.15 K, x2 = 0.1097	1021.6
308.15 K, x2 = 0.5928	984.3
313.14 K, x2 = 0.0646	1022
313.14 K, x2 = 0.1097	1018
313.14 K, x2 = 0.2074	1009.2
313.14 K, x2 = 0.3079	1000.6
313.14 K, x2 = 0.3983	994.2
313.14 K, x2 = 0.4973	988.8
313.14 K, x2 = 0.6898	966.1
313.14 K, x2 = 0.7912	949.5
313.14 K, x2 = 0.898	929.3
313.14 K, x2 = 0.9483	918.1
313.15 K, x2 = 0.5928	979.6
313.16 K, x2 = 0	1029.1
318.14 K, x2 = 0.1097	1014.3
318.14 K, x2 = 0.3079	996.3
318.14 K, x2 = 0.5928	974.8
318.14 K, x2 = 0.898	923
318.14 K, x2 = 0.9483	911.5
318.15 K, x2 = 0.0646	1018.3
318.15 K, x2 = 0.2074	1006.1
318.15 K, x2 = 0.3983	989.8
318.15 K, x2 = 0.4973	983.8
318.15 K, x2 = 0.6898	961
318.15 K, x2 = 0.7912	943.8
318.16 K, x2 = 0	1025.7
323.14 K, x2 = 0.1097	1010.6
323.14 K, x2 = 0.5928	970
323.15 K, x2 = 0.0646	1014.6
323.15 K, x2 = 0.2074	1001.4
323.15 K, x2 = 0.3079	992.33
323.15 K, x2 = 0.3983	985.3
323.15 K, x2 = 0.4973	979.2
323.15 K, x2 = 0.6898	955.7
323.15 K, x2 = 0.7912	938.1
323.15 K, x2 = 0.898	916.7
323.15 K, x2 = 0.9483	904.9
323.16 K, x2 = 0	1022.3

[2]
Conditions	refractive index
x2 = 0	1.4579
x2 = 0.0646	1.4558
x2 = 0.1097	1.4556
x2 = 0.2074	1.4509
x2 = 0.3079	1.4449
x2 = 0.3983	1.4399
x2 = 0.4973	1.4327
x2 = 0.5928	1.4232
x2 = 0.6898	1.413
x2 = 0.7912	1.3996
x2 = 0.8979	1.3833
x2 = 0.9483	1.3746
